Experimental data reported in patent EP4790048A1, “S1PR4 REGULATOR COMPOUND FOR AUTOIMMUNE DISEASE TREATMENT AND APPLICATION THEREOF” (Shengyuan Zetong (Shanghai) Pharmaceutical Co., Ltd, priority 2023, dated 2025).
Changes are numbered by the printed parent chain. Like-named read-outs stand apart in the source and are kept apart here.

Legend:
S1PR4 = biological target: T1, S1PR4 (Homo sapiens, UniProt O95977); assay: S1PR4 internalization and recovery test in S1PR4-293T cells; format: cell-based; conditions: 1 µM, 37 °C, 1.5 hours; detected immediately, 5 hours or 20 hours after treatment
T1 construct: expressed in transfected cells; host or cells: 293T
T1 sequence (O95977 1-384): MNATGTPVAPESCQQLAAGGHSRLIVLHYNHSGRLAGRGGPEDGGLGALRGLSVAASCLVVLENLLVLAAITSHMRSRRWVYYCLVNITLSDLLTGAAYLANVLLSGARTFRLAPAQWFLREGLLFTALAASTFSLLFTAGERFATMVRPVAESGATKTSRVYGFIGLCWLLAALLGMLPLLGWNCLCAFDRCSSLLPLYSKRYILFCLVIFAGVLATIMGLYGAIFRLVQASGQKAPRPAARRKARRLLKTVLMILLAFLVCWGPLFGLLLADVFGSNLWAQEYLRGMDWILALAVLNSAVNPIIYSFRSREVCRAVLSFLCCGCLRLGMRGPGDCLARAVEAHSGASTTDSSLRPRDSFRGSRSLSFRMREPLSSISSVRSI
Protocol: Therefore, the recovery degree of S1PR4 after internalization caused by Compound 30 was evaluated, and the recovery effect following receptor internalization caused by Compound 30 was assessed in cells with high S1PR4 expression.

hS1P4-R-79C = biological target: T2, hS1P4-R-79C (Homo sapiens, UniProt O95977, R79C); assay: Tango β-arrestin recruitment luciferase assay, Tango-hS1P4-R-79C-CHO (S1PR4 mutant); format: cell-based; conditions: 20 h drug treatment
T2 construct: expressed in transfected cells; host or cells: CHO
T2 sequence (O95977 1-384 R79C): T1 sequence (O95977 1-384) with R79C
Description: (§1) The Tango assay detects ligand-dependent GPCR activity through the interaction between β-arrestin and GPCRs. […] The NTEV fragment and the tetracycline transactivator (tTA), an artificial transcription factor, are fused at the C-terminus of the GPCR, while the CTEV fragment is fused to human β-arrestin 2. To enhance the stability of the interaction between GPCR and β-arrestin, a short sequence from the C-terminus of the human arginine vasopressin receptor 2 (V2 tail) is inserted between the GPCR and NTEV. The V2 tail contains multiple GRK phosphorylation sites, which strengthen β-arrestin binding upon phosphorylation. The CTEV fragment carries the stabile point mutation S219P and is truncated at residue 221 to remove the autoinhibitory C-terminal tail. Meanwhile, β-arrestin 2 is truncated to lack the entire C-terminal tail (residues 383-410 deleted). This truncation confers robust stimulus-dependent receptor desensitization, thereby improving detection sensitivity compared with wild-type β-arrestin 2. The UAS reporter construct consists of upstream activating sequence (UAS) elements, a minimal CMV promoter, and a tTA-dependent luciferase reporter gene. Therefore, constructing Tango cells requires the co-transfection of the above three plasmids into host cells. Upon GPCR activation and β-arrestin recruitment, the TEV enzyme at the β-arrestin terminus cleaves tTA from the GPCR C-terminus. The released tTA initiates tTA-dependent luciferase transcription, and compound activity is ultimately determined by measuring luminescence intensity.
(§2) • 1) Tango cell line from was digested from the culture dish respectively. After cell counting, the cells were plated at a density of 10,000 cells per well with […] into a white opaque 96-well plate (add 60 µL D'Hanks to the surrounding wells), and incubated overnight (20 h) in a 5% CO2 incubator at 37°C. The cell density will reach approximately 90% the next day. • 2) After 20 h, 30 µL of serially diluted compound solution was added to each well. The control group was supplemented with 30 µL F12K complete medium. Each group had three replicate wells. • 3) Samples were collected after 20 h of drug treatment.
(§3) (All compounds were tested at a final concentration of 45 µM, with 9 serial dilutions at 5-fold intervals. 1 µM BAF-312 was used as the positive control for S1PR1, and 25 µM BAF-312 was used as the positive control for S1PR4.

[1] = Pharmacokinetic property testing in rats; format: in vivo, SD rats; conditions: for Tmax: 3 per group
Description: In the structure-activity relationship discussion, the inventors obtained key compound 22. Based on compound 22, the polar head of the compound was modified as chiral pyrrolidine carboxylic acid, yielding selective S1PR4 agonists 30 and 67. We conducted pharmacokinetic property analyses on compounds 22, 30, and 67, respectively.

hS1P1 = biological target: T3, hS1P1 (Homo sapiens, UniProt P21453); assay: Tango β-arrestin recruitment luciferase assay, Tango-hS1P1-CHO; format: cell-based
T3 construct: expressed in transfected cells; host or cells: CHO
T3 sequence (P21453 whole entry): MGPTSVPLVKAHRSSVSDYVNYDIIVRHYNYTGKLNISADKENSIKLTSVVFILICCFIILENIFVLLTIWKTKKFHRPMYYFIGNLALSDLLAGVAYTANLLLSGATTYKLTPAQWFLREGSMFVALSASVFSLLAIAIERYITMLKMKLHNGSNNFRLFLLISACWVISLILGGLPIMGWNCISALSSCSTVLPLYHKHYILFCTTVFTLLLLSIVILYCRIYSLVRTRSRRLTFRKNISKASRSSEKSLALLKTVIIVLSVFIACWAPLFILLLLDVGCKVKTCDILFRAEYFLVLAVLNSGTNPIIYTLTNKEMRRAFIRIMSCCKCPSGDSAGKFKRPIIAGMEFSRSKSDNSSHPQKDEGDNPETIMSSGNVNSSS
Description: as §1, §2, §3

hS1P4 = biological target: T4, hS1P4 (Homo sapiens, UniProt O95977); assay: Tango β-arrestin recruitment luciferase assay, Tango-hS1P4-CHO; format: cell-based; conditions: S1PR4; Tango-S1PR4-CHO-K1 cells; mean ± SD; read-out: EC50
T4 construct: expressed in transfected cells; host or cells: CHO
T4 sequence (O95977 1-384): T1 sequence (O95977 1-384)
Description: as §1, §2, §3

S1PR3 = biological target: T5, S1PR3 (Homo sapiens, UniProt Q99500); assay: β-arrestin recruitment, PathHunter CHO-K1-S1PR3 cells; format: cell-based; conditions: mean ± SD, read-out: EC50
T5 construct: expressed in transfected cells
T5 sequence (Q99500 whole entry, species assumed): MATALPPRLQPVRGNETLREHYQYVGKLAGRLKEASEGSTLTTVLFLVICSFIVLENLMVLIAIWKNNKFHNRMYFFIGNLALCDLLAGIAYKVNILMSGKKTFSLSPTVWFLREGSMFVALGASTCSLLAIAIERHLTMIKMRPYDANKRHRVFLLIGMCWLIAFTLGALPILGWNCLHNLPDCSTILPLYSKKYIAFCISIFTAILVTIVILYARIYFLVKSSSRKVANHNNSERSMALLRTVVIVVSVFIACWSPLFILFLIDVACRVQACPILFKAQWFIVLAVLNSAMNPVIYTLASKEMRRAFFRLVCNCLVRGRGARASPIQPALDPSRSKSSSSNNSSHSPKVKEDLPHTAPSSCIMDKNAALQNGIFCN

[2] = Sprague-Dawley, rat, in vivo, IV (1 mg/kg), male SD rats
[3] = Sprague-Dawley, rat, in vivo, PO (10 mg/kg), male SD rats
[4] = β-arrestin recruitment, 20 h drug treatment, top 45 µM, 9 serial 5-fold dilutions, positive control 1 µM BAF-312, read-out: Tango-hS1P1-CHO EC50

In the case of CCc1cc(/C(C)=N/OCc2ccc(C3CCCCC3)c(C(F)(F)F)c2)ccc1CN1CC(C(=O)O)C1 [BAF312], the “S1PR4 internalization (expression of S1PR4 receptor on the cell surface)” value (S1PR4) is reported as “cannot induce S1PR4 internalization”.
For CCc1cc(/C(C)=N/OCc2ccc(-c3ccccc3)c(C)c2)ccc1CN1CC(C(=O)O)C1 [Compound 22, (E)-1-(2-ethyl-4-(1-((2-methyl-[1,1'-biphenyl]-4-yl)methoxy)imino)ethyl)azetidine-3-carboxylic acid], the EC50 (hS1P4-R-79C) was 27 nM, the “CL_obs” value ([1]; IV (1 mg/kg), male SD rats) was 34.7 ± 3.17 mL/min/kg and the “Vss_obs” value ([1]; IV (1 mg/kg), male SD rats) was 0.88 ± 0.07 L/kg. The “CL_obs” value ([1]; PO (10 mg/kg), male SD rats) was 148 ± 64.3 mL/min/kg, the “Vss_obs” value ([1]; PO (10 mg/kg), male SD rats) was 27.73 ± 16.85 L/kg and the AUC(0-t) [1, 2] was 476 ± 43.6 ng·h/mL. The Cmax [1, 2] was 995 ± 53.2 ng/mL, the half-life [1, 2] was 25.2 ± 1.8 min and the Tmax [1, 2] was 4.8 min. The AUC(0-t) [1, 3] was 1120 ± 400 ng·h/mL, the Cmax [1, 3] was 544 ± 221 ng/mL and the half-life [1, 3] was 130 ± 57.6 min. The Tmax [1, 3] was 49.8 ± 17.4 min, the bioavailability ([1]; male, Sprague-Dawley, rat, in vivo, oral, 10 mg/kg) was 23.5% and the “F (%)” value ([1]; oral bioavailability, PO 10 mg/kg vs IV 1 mg/kg, male SD rats) was 23.5%.
CCc1cc(/C(C)=N/OCc2ccc(-c3ccccc3)c(C)c2)ccc1CN1CC[C@@H](C(=O)O)C1 [Compound 29] showed an EC50 (hS1P1; [4]) of 169 nM and an EC50 (hS1P4-R-79C) of 87.2 nM.
Molecule CCc1cc(/C(C)=N/OCc2ccc(-c3ccccc3)c(C)c2)ccc1CNCCC(=O)O [Compound 31] has an EC50 (hS1P1; [4]) of 128 nM and an EC50 (hS1P4-R-79C) of 73.1 nM.
For CCCCCCCCCCCCC/C=C/[C@@H](O)[C@@H](N)COP(=O)(O)O [Compound S1P, Sphingosine-1-phosphate, reference compound], the EC50 (hS1P4) was 100 ± 21.9 nM, the EC50 (hS1P1; S1PR1, Tango-S1PR1-CHO-K1 cells, mean ± SD, read-out: EC50) was 8.52 ± 1.06 nM and the “S1PR4 internalization (expression of S1PR4 receptor on the cell surface)” value (S1PR4) was “can induce S1PR4 internalization, with receptor expression recovering after 20 hours”. It also gave an EC50 (S1PR3) of 20.6 ± 3.37 nM.
